Patent publication US8604085B2, “Bupropion hydrobromide polymorphs” (Valeant International Bermuda, priority 2008, dated 2013)

What was measured:
Format in all cases: physicochemical
[1] = TGA and DSC characterization
Protocol: The PXRD diffraction patterns were obtained on X-ray powder diffraction PANalytical X′pert Pro equipped with X′Celerator, in a measurement range between 3 and 40 2 theta. All the DSC experiments were performed with a DSC 7 Perkin Elmer instrument in a temperature range between 25° C. and 250° C. with a heating rate of 10° C./min.
All the TGA experiments were conducted with a TGA 7 Perkin Elmer instrument in a temperature range between 39° C. and 310° C. with a heating rate of 10° C./min.
PXRD, DSC, TGA and IR analyses were obtained for Bupropion Hydrobromide Polymorph Form I, Form II, Form III, Form IV, Form V, Form VI, and Form VII. PXRD analyses were obtained for the amorphous form. With respect to the PXRD analyses, the Peak List is shown for Form I, Form II, Form III, Form IV, Form V, Form VI, Form VII and the amorphous form in Table 56, Table 57, Table 58, Table 59, Table 60, Table 61, Table 62 and Table 63 respectively.

[2] = Stability tests on bupropion hydrobromide polymorphs in humidity chamber (XRD pattern); conditions: 40° C., 85% R.H., open sample-holder
Protocol: Stability tests were performed on bupropion hydrobromide Form I, Form II, Form III, Form IV, Form V and Form VI. The powders were stored in a controlled atmosphere (85% R.H.) at 40° C. Form I and Form II were stored for 7 and 30 days respectively, while the other forms were stored only for 30 days. The sample was positioned on the sample-holder which was introduced, without any cover, into the humidity chamber at 40° C. The layer of the sample on the sample-holder was about 0.5 cm.
In addition, stability tests were performed on bupropion hydrobromide Form VII.

[3] = Precipitation from oversaturated solution at 100° C., cooling rate 0.45° C./min
Protocol: Bupropion hydrobromide Form I was dissolved at 100° C. in solvent to obtain the oversaturated solution. The cooling rate applied was 0.45° C./min. The samples were filtered and analyzed by X-ray diffraction. Form I converts into Form VI using 1-Propanol, and into Form V using 1,4-Dioxane. The other experiments yield only Form I. See Table 55 for Form I precipitation results by oversaturated solution. […]

[4] = Slurries in 2-propanol at room temperature, 50° C. and 80° C.; conditions: form by XRD
Protocol: 0.050 g of Form I were suspended in 4 ml of solvent and stirred at room temperature. for 1 week (7 days). The sample was filtered and analyzed by X-ray diffraction.
0.040 g of Form I+0.040 g of Form II were suspended in 4 ml of solvent and stirred at room temperature for 1 week (7 days). The sample was filtered and analyzed by X-ray diffraction experiments.
0.050 g of Form II were suspended in 4 ml of solvent and stirred at room temperature for 1 week (7 days). The sample was filtered and analyzed by X-ray diffraction experiments.
0.050 g of Form I were suspended in 4 ml of solvent and stirred at 50° C. for 1 Week (7 days). The sample was filtered and analyzed by X-ray diffraction experiments.
0.040 g of Form I+0.040 g of Form II were suspended in 4 ml of solvent and stirred at 50° C. for 1 week (7 days). The sample was filtered and analyzed by X-ray diffraction experiments.
Form I+Form II were suspended in solvent and stirred at 80° C. for 14 hours. The sample was filtered and analyzed by X-ray diffraction experiments. […] Slurry in 2-propanol at 80° C. is an atypical experiment because if we consider the boiling point of the solvent, it could be defined as a combination between a slurry and precipitation experiment. Form I was obtained during the precipitation from supersaturated solution by 2-propanol. However the high temperature and the reflux produce the energetic conditions needed by the stable crystal form (Form II) to convert to the metastable crystal form (Form I).

[5] = Forced degradation studies of the API's in the presence of standard excipients; conditions: with standard excipients; about 24 and about 48 hours at about 55° C., about 55° C. and 100% relative humidity, about 105° C.
Protocol: Forced degradation studies were also performed on bupropion hydrobromide and bupropion hydrochloride API's in the presence of standard excipients used in pharmaceutical formulations.

Row | SMILES | TGA (mass change) ([1]; successive mass-loss steps listed per polymorph) [%] | DSC (onset ° C.) ([1]; successive thermal events listed per polymorph) [°C] | XRD pattern / crystal form after storage ([2]; 7 days) | XRD pattern / crystal form after storage ([2]; 30 days) | Precipitation Result ([3]; solvent 1,4-Dioxane) | Precipitation Result ([3]; solvent 1-Butanol) | Precipitation Result ([3]; solvent 1-Methyl-2-Pyrrolidone) | Precipitation Result ([3]; solvent 1-Propanol) | Precipitation Result ([3]; solvent 2-Methoxy Ethanol) | Precipitation Result ([3]; solvent 2-Methyl-1-Propanol) | Precipitation Result ([3]; solvent (±)2-Butanol) | Precipitation Result ([3]; solvent Dimethyl formamide) | Precipitation Result ([3]; solvent Dimethyl sulfoxyde) | Precipitation Result ([3]; solvent Nitromethane) | Precipitation Result ([3]; solvent Water) | Precipitation Result ([3]; solvent p-Xylene) | Slurry result in 2-propanol ([4]; 50° C., 1 week (7 days)) | Slurry result in 2-propanol ([4]; mixture Form I+Form II, 80° C., 14 hours) | Slurry result in 2-propanol ([4]; room temperature, 1 week (7 days)) | amount of degradation (bupropion degradation impurities) versus bupropion hydrochloride [5]
1 | Br.CC(NC(C)(C)C)C(=O)c1cccc(Cl)c1 (single isomer, unassigned) [Form I] | −100.04 | 236.81 | did not show modification | did not show modification | Form V | Form I | Form I | Form VI | Form I | Form I | Form I | Form I | Form I | Form I | Form I | Form I | converted to Form II | remained as Form I | converted to Form II | –
2 | Br.CC(NC(C)(C)C)C(=O)c1cccc(Cl)c1 (centres unmarked) [Bupropion hydrobromide, 3′-chloro-2-t-butylamino-1-propiophenone hydrobromide] | – | – | – | – | – | – | – | – | – | – | – | – | – | – | – | – | – | – | – | lowest amount of degradation
